This experiment deals with T1, Aquaporin-1 (Homo sapiens, UniProt P29972).
T1 sequence (P29972 whole entry): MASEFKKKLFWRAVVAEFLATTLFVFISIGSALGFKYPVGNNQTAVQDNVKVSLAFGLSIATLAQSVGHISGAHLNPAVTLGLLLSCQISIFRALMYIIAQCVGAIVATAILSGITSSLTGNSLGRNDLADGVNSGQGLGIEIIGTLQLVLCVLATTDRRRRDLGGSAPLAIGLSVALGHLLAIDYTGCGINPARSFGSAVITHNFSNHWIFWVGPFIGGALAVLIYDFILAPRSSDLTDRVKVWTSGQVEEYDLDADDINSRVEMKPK
Briefly: Stopped-flow Assay. On the procedure:
Osmotic water permeability was measured at 22-24 °C bymonitoring 90° scattered light intensity at 520 nm wavelength. Measurements were made using a PiStar 180 (Applied Photophysics, UK), with a dead time of 1-2 milliseconds. Thirty minutes prior to the assay, stripped red blood cell ghosts or proteoliposomes containing purified AQP1 and stored in ice were treated with mercuric chloride (50-100 µM; positive control for inhibition) or with the various compounds usually at a concentration of 150 µM. Stock solutions of compounds were in 100% ethanol (for stripped erythrocyte membrane experiments) and in 100% DMSO (for proteoliposome experiments). An inwardly directed osmotic gradient (hyperosmotic shock) was created by mixing the vesicles maintained in Buffer A (50 mM sodium phosphate buffer pH, 100 mM NaCl, 1 mM EDTA, 0.025% sodium azide) with an equal volume of 200 mM mannitol. On the other hand, vesicles preincubated with 200 mM mannitol were mixed with Buffer A to create an outwardly
The molecule `Nc1nc(NC[C@H]2CC[C@H](CNS(=O)(=O)c3cccc4c(Cl)cccc34)CC2)nc2ccccc12` [5-chloro-N-{[(1r,4r)-4-{[(4-aminoquinazolin-2-yl)amino]methyl}cyclohexyl]methyl}naphthalene-1-sulfonamide (Compound 3)] registered a half-inhibitory concentration (IC50) of 5.8 µM.

With `Nc1nc(NC[C@H]2CC[C@H](CNS(=O)(=O)c3ccc4ccccc4c3)CC2)nc2ccccc12`, the IC50 was found to be 3.9 µM.

In the case of `CNCC1Cc2cc(F)cc(-c3c(Cl)cccc3Cl)c2O1` (stereo unspecified) [{[7-(2,6-dichlorophenyl)-5-fluoro-2,3-dihydro-1-benzofuran-2-yl]methyl}(methyl)amine (Compound 6)], it took 29.4 µM to reach half-maximal inhibition (IC50).

`NCC1Cc2cc(F)cc(-c3ccc(Cl)cc3Cl)c2O1` (stereo unspecified) [[7-(2,4-dichlorophenyl)-5-fluoro-2,3-dihydro-1-benzofuran-2-yl]methanamine (Compound 5)] yielded an IC50 of 15.2 µM.

As for `Nc1nc(NC[C@H]2CC[C@H](CNS(=O)(=O)c3cccc4ccccc34)CC2)nc2ccccc12` [CGP 71683], inhibition was half-maximal at 2.7 µM (IC50).

In turn, `CNCC1Cc2cc(F)cc(-c3ccc(Cl)cc3Cl)c2O1` (stereo unspecified) [{[7-(2,4-dichlorophenyl)-5-fluoro-2,3-dihydro-1-benzofuran-2-yl]methyl}(methyl)amine (Compound 4)] had an IC50 of 9.8 µM.

For the origin of these results see BindingDB's records for doi:10.1111/cbdd.12713 (Novartis Institutes of Biomedical Research Institute, 2016).
